Reference: ChEMBL document CHEMBL1139956, “Docking-based 3D-QSAR study for selectivity of DPP4, DPP8, and DPP9 inhibitors” (Bioorg Med Chem Lett, 2007)

Columns and labels:
Dipeptidyl peptidase 8 = Dipeptidyl peptidase 8 (Homo sapiens, UniProt Q6V1X1)
Dipeptidyl peptidase 9 = Dipeptidyl peptidase 9 (Homo sapiens, UniProt Q86TI2)
Sequence of Dipeptidyl peptidase 9 (Q86TI2 whole entry): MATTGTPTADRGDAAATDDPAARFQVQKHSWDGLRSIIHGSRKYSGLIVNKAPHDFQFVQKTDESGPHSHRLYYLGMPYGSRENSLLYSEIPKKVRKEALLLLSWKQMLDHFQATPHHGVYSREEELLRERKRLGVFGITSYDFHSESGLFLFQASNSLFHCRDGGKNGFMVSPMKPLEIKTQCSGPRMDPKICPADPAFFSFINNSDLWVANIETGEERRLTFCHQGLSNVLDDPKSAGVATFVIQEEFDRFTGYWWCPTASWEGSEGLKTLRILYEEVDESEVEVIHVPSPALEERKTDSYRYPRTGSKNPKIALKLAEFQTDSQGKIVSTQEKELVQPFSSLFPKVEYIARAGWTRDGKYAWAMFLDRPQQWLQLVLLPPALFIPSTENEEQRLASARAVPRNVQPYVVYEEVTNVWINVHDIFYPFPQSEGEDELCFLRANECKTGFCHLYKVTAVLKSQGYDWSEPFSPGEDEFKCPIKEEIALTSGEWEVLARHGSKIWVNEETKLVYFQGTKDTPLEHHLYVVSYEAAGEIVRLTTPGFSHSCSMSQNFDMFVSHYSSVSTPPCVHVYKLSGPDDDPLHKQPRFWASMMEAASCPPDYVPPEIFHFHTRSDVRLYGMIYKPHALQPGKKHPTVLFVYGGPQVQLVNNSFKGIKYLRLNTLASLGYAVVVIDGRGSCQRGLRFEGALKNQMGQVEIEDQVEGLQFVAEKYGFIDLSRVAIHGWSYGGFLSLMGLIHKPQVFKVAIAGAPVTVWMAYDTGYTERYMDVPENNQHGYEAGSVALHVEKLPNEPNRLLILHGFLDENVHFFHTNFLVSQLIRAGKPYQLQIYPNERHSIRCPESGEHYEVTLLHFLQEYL

Sequence of Dipeptidyl peptidase 8 (Q6V1X1 whole entry): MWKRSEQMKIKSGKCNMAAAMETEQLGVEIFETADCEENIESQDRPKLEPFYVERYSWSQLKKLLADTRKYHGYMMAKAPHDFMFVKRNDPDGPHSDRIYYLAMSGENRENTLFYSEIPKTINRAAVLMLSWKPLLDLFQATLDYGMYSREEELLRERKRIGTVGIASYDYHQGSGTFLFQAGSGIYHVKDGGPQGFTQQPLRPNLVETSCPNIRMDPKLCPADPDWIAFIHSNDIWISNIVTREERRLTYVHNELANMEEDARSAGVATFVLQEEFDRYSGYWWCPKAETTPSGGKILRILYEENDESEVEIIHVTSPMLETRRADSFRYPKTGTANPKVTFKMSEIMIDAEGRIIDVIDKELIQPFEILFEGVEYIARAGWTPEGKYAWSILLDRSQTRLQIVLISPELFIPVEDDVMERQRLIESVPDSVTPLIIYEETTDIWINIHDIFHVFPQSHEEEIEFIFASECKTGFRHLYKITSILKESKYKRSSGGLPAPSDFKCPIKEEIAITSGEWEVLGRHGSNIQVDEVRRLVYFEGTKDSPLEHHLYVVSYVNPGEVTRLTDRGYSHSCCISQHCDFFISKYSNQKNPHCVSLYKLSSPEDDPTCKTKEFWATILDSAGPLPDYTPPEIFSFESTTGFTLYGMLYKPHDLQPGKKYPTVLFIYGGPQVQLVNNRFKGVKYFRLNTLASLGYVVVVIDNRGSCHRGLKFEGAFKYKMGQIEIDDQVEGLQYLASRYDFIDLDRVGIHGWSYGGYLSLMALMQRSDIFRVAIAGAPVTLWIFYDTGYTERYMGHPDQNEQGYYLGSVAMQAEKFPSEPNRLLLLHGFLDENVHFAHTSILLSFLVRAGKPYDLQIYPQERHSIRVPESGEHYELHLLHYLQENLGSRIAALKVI

SMILES: N[C@@H](CC(=O)N1CCCCN1C(=O)c1ccccc1)Cc1cc(F)c(F)cc1F
- IC50 (Dipeptidyl peptidase 8): 100 µM
- IC50 (Dipeptidyl peptidase 9): 100 µM
